Measured values published in publication PMC7071076, “Antibacterial Activity and Pharmacokinetic Profile of a Promising Antibacterial Agent: 22-(2-Amino-phenylsulfanyl)-22-Deoxypleuromutilin” (Molecules, 2020).
Values after ≈ are worked out from the molar mass of the structure shown.

How the values were obtained:
[1] = Acute oral toxicity study; details: both sexes, KM, mouse, in vivo, 5000 mg/kg; mice, oral (gavage), single dose
Procedure: (§1) The acute toxicity test mainly referred to the previous reports with some modifications. Seven male and seven female KM mice in SPF grade were used for this study. Amphenmulin was formulated in DMSO and given in a single- dose at 5000 mg/kg by gavage, while the control group were given DMSO without drug. […] The median lethal dose (LD50) was calculated by modified Karber method on day 15. The experiment was repeated twice.

KM mice = experiment: Acute oral toxicity study; details: mouse, in vivo, 5000 mg/kg
Procedure: as §1

E. faecalis ATCC 29212 = experiment: MIC testing (broth dilution, 96-well plate); type: cell-based; details: Enterococcus faecalis, ATCC29212
Procedure: (§2) The MIC of amphenmulin against MRSA, Escherichia coli, Salmonella typhimurium, Enterococcus faecalis, and Enterococcus faecium were determined using tiamulin as controls. MIC values were measured by the method of previous work. Staphylococcus aureus ATCC 29213 was used as the quality control bacteria, and the quality control range was referred to the Clinical and Laboratory Standards Institute (CLSI). The bacteria solution was diluted to ~10^6 CFU/mL with Mueller–Hinton (MH) broth for MRSA, Escherichia coli and Salmonella typhimurium while Trypticase Soy Broth for Enterococcus faecalis and Enterococcus faecium. Drugs were dissolved in an aqueous solution of N, N-dimethylformamide (DMF) at a concentration of 2560 µg/mL, and then diluted with broth to prepare working solution (1280 µg/mL). The drug susceptibility testing was performed in 96-well plate. A total of 20 µL of working solution was added into column 1 and well mixed as a 10-fold dilution, following which Serial 2-fold dilutions were prepared to provide concentration ranges of 128–0.0078 µg/mL. Blank broth (no cultures) and bacteria solution (drugs replaced by blank solvent) were set as drug-free controls. Each 96-well plate was cultured at 37 °C for 24 h. The MIC value is the lowest concentration of amphenmulin which inhibits the visible growth of bacteria. The experiment was repeated three times.

[2] = system: S. typhimurium ATCC 14028; experiment: MIC testing (broth dilution, 96-well plate); type: cell-based; details: Salmonella enterica
Procedure: as §2

E. faecium ATCC 35667 = experiment: MIC testing (broth dilution, 96-well plate); type: cell-based; details: Enterococcus faecium, ATCC35667
Procedure: as §2

E. coli ATCC 25922 = experiment: MIC testing (broth dilution, 96-well plate); type: cell-based; details: Escherichia coli, ATCC25922
Procedure: as §2

S. aureus ATCC 29213 = experiment: MIC testing (broth dilution, 96-well plate); type: cell-based; details: Staphylococcus aureus, ATCC29213
Procedure: as §2

IL-6 = experiment: MRSA wound infection model: serum cytokine ELISA; type: in vivo, mice; details: three days after treatment (method: 24 h), p < 0.05
Procedure: (§3) Six weeks SPF-ICR female mice were used for this study. The Experimental model, inducted of inflammatory in mice by skin excision, was established referring to existing methods with some alterations. The mice were anesthetized with the intravenous injection of 1% sodium pentobarbital. After their hair on the back was shaved, the mice were anesthetized and the back skin was perforated with a biopsy perforator at a depth of fascia injury. The inoculum (50 μL), containing 10^9 CFU/mL of the indicated microorganism (MRSA ATCC 43300), was applied on the wound for three times at 30 min intervals. 100 μL drug (3 mg/mL) was administrated on the wound at 1 h after inoculation for three consecutive days. A total of 100 μL blank matrix was given to the infected control group and the non-infected group in the same way. The wound was wrapped with sterile gauze. During the treatment, all mice were kept individually and free to eat and drink.
(§4) After administration for 24 h, blood samples were collected from the ocular venous plexus and were prepared to serum samples as previously described. The contents of IL-6, TNF-α, and MCP-1 in serum were detected using ELISA kits according to the instruction. All ELISA kits were purchased from Shanghai Enzyme-linked Biotechnology Co., Ltd. (Shanghai, China).

MCP-1 = experiment: MRSA wound infection model: serum cytokine ELISA; type: in vivo, mice; details: three days after treatment (method: 24 h), p < 0.05
Procedure: as §3, §4

TNF-α = experiment: MRSA wound infection model: serum cytokine ELISA; type: in vivo, mice; details: three days after treatment (method: 24 h), p < 0.05
Procedure: as §3, §4

MRSA = experiment: MIC against MRSA (summary over strains); type: cell-based; details: Staphylococcus aureus, range over strains, read-out: minimal inhibitory concentration
Procedure: as §2

C=C[C@]1(C)C[C@@H](OC(=O)CSc2ccccc2N)[C@]2(C)[C@H](C)CC[C@]3(CCC(=O)[C@H]32)[C@@H](C)[C@@H]1O [Amphenmulin, 22-(2-amino-phenylsulfanyl)-22-deoxypleuromutilin]
LD50 at 14 days [1]: > 5000 mg/kg | mortality (KM mice): No mice died | abnormal symptoms (KM mice; po): increase in the heart rate, excitement of some mice and inappetence | MIC (E. faecalis ATCC 29212): > 128 µg/mL | MIC [2]: > 128 µg/mL | MIC (E. faecium ATCC 35667): 0.125 µg/mL (≈ 0.257 µM) | MIC (E. coli ATCC 25922): > 128 µg/mL | MIC (S. aureus ATCC 29213): 0.0156 µg/mL (≈ 0.0321 µM) | IL-6 in the serum vs infection group (IL-6): significantly decreased | MCP-1 in the serum vs infection group (MCP-1): significantly decreased | TNF-α in the serum vs infection group (TNF-α): significantly decreased | MIC (MRSA): 0.0156 to 8 µg/mL (≈ 0.0321 to 16.5 µM)
